Source: paper PMC10144514, “Imageological/Structural Study regarding the Improved Pharmacokinetics by ^68Ga-Labeled PEGylated PSMA Multimer in Prostate Cancer” (Pharmaceuticals, 2023)

Experiments:
[1] = In vitro stability of radiotracers in PBS (radiochemical purity by HPLC); format: physicochemical; settings: incubated in PBS at 37 °C for 2 h
Experimental: (§1) All solvents and reagents were purchased from Sigma-Aldrich (Shanghai, China) and Shanghai yuanye Bio-Technology (Shanghai, China). DOTA-(1P-PEG4), DOTA-(2P-PEG0), DOTA(DOTA-(2P-PEG4), and (DOTA-(2P-PEG4)2 were synthesized by Bidepharm (Shanghai, China), and characterized by HPLC and mass spectrometry. Radio-HPLC analyses of the radiotracers were carried out using C18 column (5 µm, 4.6 × 250 mm, ZORBAX Eclipse Plus, Agilent, Milford, MA, USA), and analytical grade solvent by solvent A (0.1% trifluoroacetic acid (TFA) in water) and solvent B (0.1% TFA in acetonitrile). A ^68Ge/^68Ga generator was purchased from ITM Medical Isotopes (Munich, Germany). The γ count was measured by a CAPRAC-t γ counter containing a NaI crystal (CAPINTEC, Ramsey, NJ, USA). All in vitro experiments regarding PSMA and the determination of radiotracers’ stability were performed in triplicate to ensure reproducibility.
(§2) […] was eluted from a ^68Ge/^68Ga generator with 0.05M HCl (≈200 MBq/mL). […]
(§3) A total of four kinds of PSMA-related ligands were designed and synthesized. The radiochemical purity of these four ^68Ga/^177Lu-labeled compounds was detected by HPLC (Figure 1) and thin-layer chromatography (Figure S5). […]

[2] = In vitro stability of radiotracers in FBS (radiochemical purity by HPLC); format: in vitro ADME; settings: incubated in FBS at 37 °C for 2 h
Experimental: as §1, §2, §3

[3] = Lipophilicity determination (n-octanol/PBS partition); format: physicochemical; settings: ^68Ga-labeled ligand
Experimental: Nuclide-labeled ligand (20 μL, ≈50 μCi), PBS (480 μL), and saturated n-octanol (500 μL) were added in a 1 mL EP tube, followed by vortex. Then the mixture was centrifuged at a low temperature (−5 °C) for 10 min until the mixture was separated into the upper and the lower layers. Liquids in the two phases were transferred into EP tubes and measured by the γ-counter. The calculation of the LogP value was based on the following equation: LogP = Lg [(counting of the organic phase − background counting)/(counting of the aqueous phase − background counting)]

human albumin = target: T1, human albumin (Homo sapiens, UniProt P02768); experiment: In vitro determination of albumin binding (ultrafiltration); format: in vitro ADME; settings: human serum albumin 20 mg/mL, 37 °C, ^68Ga-labeled
T1 construct: purchased Sigma-Aldrich (Shanghai, China) or Shanghai yuanye Bio-Technology (general reagents statement; not tied to albumin)
T1 sequence (P02768 25-609): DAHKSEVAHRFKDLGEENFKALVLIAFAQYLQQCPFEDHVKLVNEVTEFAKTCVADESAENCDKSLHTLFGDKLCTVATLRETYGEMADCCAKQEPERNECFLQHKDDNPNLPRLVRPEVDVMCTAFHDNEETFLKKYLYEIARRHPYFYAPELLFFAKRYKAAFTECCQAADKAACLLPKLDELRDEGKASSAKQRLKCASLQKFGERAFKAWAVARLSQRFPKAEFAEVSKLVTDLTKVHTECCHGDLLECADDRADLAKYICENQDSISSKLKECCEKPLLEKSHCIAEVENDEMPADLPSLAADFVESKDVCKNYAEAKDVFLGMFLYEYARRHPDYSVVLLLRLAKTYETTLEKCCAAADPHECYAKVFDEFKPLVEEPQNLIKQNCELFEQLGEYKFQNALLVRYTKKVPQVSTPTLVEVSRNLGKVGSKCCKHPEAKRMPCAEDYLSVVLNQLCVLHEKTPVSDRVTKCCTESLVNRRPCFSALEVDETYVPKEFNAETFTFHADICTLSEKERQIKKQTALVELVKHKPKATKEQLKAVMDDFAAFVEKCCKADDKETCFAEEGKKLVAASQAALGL
Experimental: The albumin-binding rate of each ligand was measured by the γ-counter. ^68Ga-labeled PSMA ligand (≈50 μCi) was added into the human albumin solution (20 mg/mL). The mixture was incubated in a water bath (37 °C) for 30 min and 120 min, followed by ultrafiltration centrifugation for 5 min (10 kD, 10,000 rpm). The compound activities of the uncombined albumin or those retained on the filter membrane were measured by the γ counter, according to which the percentage of serum albumin binding activity (retained on the filter membrane) to total activity was calculated.
The calculation was based on the following equation: (counting of albumin retained on membrane − background counting)/(counting of albumin retained on membrane + counting of filtered liquid − 2* background counting) × 100%, and the average of three sets of data was taken as the final result.

PC-3 PIP cells = experiment: Cellular uptake and 2-PMPA blocking in PC-3 PIP cells; format: cell-based
Experimental: Cellular experiments in this study were performed in the PC-3 PIP cell line. PC-3 PIP, a PCa cell line with stably high-expressed PSMA [28], was a gift from Professor Chen from the National University of Singapore. Cells were cultured in ATCC 1640 medium with 10% of FBS, L-glutamine, and antibiotic (37 °C, 5% CO2).
PC-3 PIP cells were cultured in ATCC 1640 medium containing 10% FBS. When cultured to 70–80% confluency, cells were collected and seeded in a 24-well plate. After culturing overnight (37 °C, 5% CO2), the culture medium was replaced by serum-free ATCC 1640 medium (serum-starved cell culture) for 0.5 h. Then nuclide-labeled compounds were added into wells (50 µL, 1 μCi/well) with gentle shakes to ensure they were well distributed. After incubating for 30 min/60 min/120 min, cells at each time point were digested by NaOH and measured by the γ-counter to calculate the uptake rate (n ≥ 3). Cells were co-incubated with glycine (pH = 2.8) for 1 min, and then the procedure above was repeated after dissolving in 1 M NaOH (procedure for internalization). Cells were incubated with PSMA inhibitor (2-PMPA) for blocking assays for 15 min before adding the labeled ligands.

PSMA (PC-3 PIP cells) = target: T2, PSMA (PC-3 PIP cells) (Homo sapiens, UniProt Q04609); experiment: Competitive binding IC50 against [^68Ga]Ga-PSMA-11 in PC-3 PIP cells; settings: competition with [^68Ga]Ga-PSMA-11, 1 h
T2 construct: expressed in transfected cells; host or cells: PC-3 PIP cells (PC-3 stably expressing PSMA; gift from Professor Chen, National University of Singapore)
T2 sequence (Q04609 whole entry): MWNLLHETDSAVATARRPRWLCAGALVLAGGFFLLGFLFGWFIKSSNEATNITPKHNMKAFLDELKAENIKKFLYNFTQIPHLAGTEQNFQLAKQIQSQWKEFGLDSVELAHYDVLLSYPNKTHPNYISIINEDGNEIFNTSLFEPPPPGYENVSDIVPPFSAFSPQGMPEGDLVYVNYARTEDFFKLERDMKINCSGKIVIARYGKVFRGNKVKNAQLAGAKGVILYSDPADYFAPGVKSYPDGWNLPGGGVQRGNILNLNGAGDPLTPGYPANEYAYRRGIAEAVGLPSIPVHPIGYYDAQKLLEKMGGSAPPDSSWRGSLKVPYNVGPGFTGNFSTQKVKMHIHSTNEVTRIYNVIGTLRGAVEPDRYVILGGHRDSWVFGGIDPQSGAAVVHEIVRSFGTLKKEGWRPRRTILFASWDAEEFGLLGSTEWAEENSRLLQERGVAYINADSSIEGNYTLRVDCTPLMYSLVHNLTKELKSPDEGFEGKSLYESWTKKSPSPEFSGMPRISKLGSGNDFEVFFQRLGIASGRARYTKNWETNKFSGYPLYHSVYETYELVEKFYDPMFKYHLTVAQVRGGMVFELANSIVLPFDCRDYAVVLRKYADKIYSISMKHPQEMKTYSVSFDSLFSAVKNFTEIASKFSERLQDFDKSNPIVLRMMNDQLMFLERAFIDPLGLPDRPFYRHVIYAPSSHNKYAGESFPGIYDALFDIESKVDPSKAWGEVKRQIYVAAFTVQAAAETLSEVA
Experimental: PC-3 PIP cells were seeded in 96-well plates in triplicate and cultured to a density of 5* × 10^5 cells per well. [^68Ga]Ga-PSMA-11 was added into wells after serum-starved cell culture (1 μCi/well, ≈171 nmol/L), after which different PBS-diluted competitive ligands were added in wells and cultured for another hour. Then cells were washed with cold PBS twice removing the supernatant. Cells were collected and transferred to test tubes for counting by the γ-counter. IC50 values were analyzed and confirmed by nonlinear regression on GraphPad Prism Software.

PC-3 PIP tumor [4] = experiment: Biodistribution in PC-3 PIP tumor-bearing mice; format: in vivo; settings: 2 h p.i.
Experimental: (§4) PC-3 PIP cells at the logarithmic phase were collected after trypsinization and re-suspended to 5 × 10^7/mL with serum-free medium after removing the supernatant. Mice (6 weeks) were subcutaneously injected with 200 μL of cell suspension, and utilized for small animal PET/CT imaging, SPECT/CT imaging, and biodistribution analysis when tumor volume was ≧100 mm^3. All animal experiments were conducted with the approval of The Southwest Medical University Animal Ethics Committee.
PC-3 PIP tumor-bearing mice (n > 3) were divided into four groups and respectively injected with 0.1 mL (70μCi) of [^68Ga]Ga-DOTA-(1P-PEG4), [^68Ga]Ga-DOTA-(2P-PEG0), [^68Ga]Ga-DOTA-(2P-PEG4), and [^68Ga]Ga-DOTA-(2P-PEG4)2 through the caudal vein. Mice were executed at 30 min/60 min/120 min after injection. Heart, blood, lung, liver, stomach, spleen, kidney, muscle, intestine, bone, salivary gland, and tumor were collected and detected by the γ-counter. The fitted curve was calculated on the basis of standard diluted samples of the initial dosage, and then the percentage of injected dose per gram of tissue (ID%/g) was calculated.

PC-3 PIP tumor [5] = experiment: Micro animal PET/CT and SPECT/CT imaging of PC-3 PIP tumor-bearing mice; format: in vivo
Experimental: as §4, with “Committee. Tumor-bearing mice (n = 3) were intravenously injected with 0.1 mL (80μCi) of freshly prepared ^68Ga/^177Lu-labeled PSMA ligands. PET/CT imaging was performed at 0.5/1/2/5 h after injection, and SPECT/CT imaging was performed at 6/24/48 h after injection. The acquired PET/CT and SPECT/CT data were re-constructed by OSEM (ordered subsets expectation maximization).” for “Committee.”

Structure (SMILES)	radiochemical purity (PBS) at 2 h [1] [%]	radiochemical purity (FBS) at 2 h [2] [%]	logP [3]	albumin-binding rate (0.5 h) (human albumin; 0.5 h) [%]	albumin-binding rate (2 h) (human albumin; 2 h) [%]	uptake rate after co-incubation with PSMA inhibitor 2-PMPA (PC-3 PIP cells; PC-3 PIP cells blocked by 2-PMPA, uptake at one hour (Figure 3C)) [%]	2 h cellular uptake rate (PC-3 PIP cells; PC-3 PIP cells, 2 h, ^68Ga-labeled) [%]	IC50 (PSMA (PC-3 PIP cells)) [nM]	2 h blood uptake value (PC-3 PIP tumor [4]) [ID%/g]	tumor uptake on PET/CT imaging (PC-3 PIP tumor [5]; ^68Ga-labeled, PET/CT at 0.5/1/2/5 h after injection)	kidney uptake on SPECT/CT imaging at 6 h (PC-3 PIP tumor [5]; ^177Lu-labeled, SPECT/CT, 6 h after injection)
O=C(O)CC[C@H](NC(=O)N[C@@H](CCCCNC(=O)[C@@H](CCC(=O)NCCCC[C@@H](NC(=O)N[C@H](CCC(=O)O)C(=O)O)C(=O)O)NC(=O)CN1CCN(CC(=O)O)CCN(CC(=O)O)CCN(CC(=O)O)CC1)C(=O)O)C(=O)O [[^68Ga]Ga-DOTA-(2P-PEG0), metal not drawn]	95.78	95.21	-2.84	54.84	54.29	1.00 ± 0.16	8.39 ± 3.65	455	2.78 ± 1.80	began to decline at 2 h after injection	–
O=C(O)CC[C@H](NC(=O)N[C@@H](CCCCNC(=O)[C@H](Cc1ccc2ccccc2c1)NC(=O)[C@H]1CC[C@H](CNC(=O)CN2CCN(CC(=O)O)CCN(CC(=O)O)CCN(CC(=O)O)CC2)CC1)C(=O)O)C(=O)O [[^177Lu]Lu-PSMA-617, metal not drawn, reference compound]	–	–	–	–	–	–	–	–	–	–	detectable kidney uptake at 6 h
